Reference: US10383880B2 (Reset Therapeutics, Inc., priority 2012, dated 2019)
pEC50: −log10 of the molar value.

Test system: Per2-dLuc U2OS reporter cells
Assay: Per2 assay for evaluating the potency of test compounds (high-throughput circadian assay)
Assay type: cell-based
Conditions: Homo sapiens, U2OS, stable U2OS reporter cells harboring Per2-dLuc; luminescence monitored over 4-5 days at 35° C.
In short: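 Compounds (0.5% DMSO final) were added right after serum-shock synchronization of Per2-dLuc U2OS reporter cells in minimal medium containing 1.0 mM beetle luciferin. Reporter luminescence was followed at 35 °C for 4–5 days to extract rhythm period, amplitude and phase, and EC50 values were obtained from these.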

Point of comparison: `CCCc1ccc(N(CC(O)Cn2c3ccc(F)cc3c3cc(F)ccc32)S(C)(=O)=O)cc1` (centres unmarked) [Compound 200, N-(3-(3,6-Difluoro-9H-carbazol-9-yl)-2-hydroxypropyl)-N-(4-propylphenyl)methanesulfonamide], pEC50 5.72. Against it:
- CS(=O)(=O)N(CC(O)Cn1c2ccccc2c2ccccc21)C1CCCCC1(F)F (centres unmarked) [Compound 135, N-(3-(9H-Carbazol-9-yl)-2-hydroxypropyl)-N-(2,2-difluorocyclohexyl)methanesulfonamide] — 0.50 log units higher, 6.22
- COCCN(CC(O)Cn1c2cc(F)ccc2c2ccc(F)cc21)S(C)(=O)=O (centres unmarked) [Compound 95, N-(3-(2,7-Difluoro-9H-carbazol-9-yl)-2-hydroxypropyl)-N-(2-methoxyethyl)methanesulfonamide] — within 0.2 log units, 5.56
- CS(=O)(=O)N(CC(O)Cn1c2ccccc2c2ccccc21)C1CCC(F)(F)CC1 (centres unmarked) [Compound 128, N-(3-(9H-Carbazol-9-yl)-2-hydroxypropyl)-N-(4,4-difluorocyclohexyl)methanesulfonamide] — 0.71 log units higher, 6.43
- O=S1(=O)N(CC(O)Cn2c3ccc(F)cc3c3cc(F)ccc32)CCN1C1CCC1 (centres unmarked) [Compound 234] — 0.82 log units higher, 6.54
- O=S1(=O)NCCCN1CC(O)Cn1c2ccc(F)cc2c2cc(F)ccc21 (centres unmarked) [Compound 171, 2-(3-(3,6-Difluoro-9H-carbazol-9-yl)-2-hydroxypropyl)-1,2,6-thiadiazinane-1,1-dioxide] — 1.88 log units higher, 7.60
- CS(=O)(=O)N(CC(O)Cn1c2ccccc2c2ccccc21)c1cccc(C#N)c1 (centres unmarked) [Compound 72, N-(3-(9H-Carbazol-9-yl)-2-hydroxypropyl)-N-(3-cyanophenyl)methanesulfonamide] — within 0.2 log units, 5.59
- CC1CCC(N(CC(O)Cn2c3ccccc3c3ccccc32)S(C)(=O)=O)CC1 (centres unmarked) [Compound 126, N-(3-(9H-Carbazol-9-yl)-2-hydroxypropyl)-N-(4-methylcyclohexyl)methanesulfonamide] — 0.65 log units higher, 6.37
- CCOCCS(=O)(=O)N(Cc1ccco1)CC(O)Cn1c2ccccc2c2ccccc21 (centres unmarked) [Compound 12, N-(3-(9H-Carbazol-9-yl)-2-hydroxypropyl)-2-ethoxy-N-(furan-2-ylmethyl)ethanesulfonamide] — 0.27 log units higher, 5.99
- CS(=O)(=O)N(CC(O)Cn1c2ccccc2c2ccccc21)C1CCCC1 (centres unmarked) [Compound 58, N-(3-(9H-Carbazol-9-yl)-2-hydroxypropyl)-N-cyclopentylmethanesulfonamide] — 1.10 log units higher, 6.82
- CS(=O)(=O)N(CC(O)Cn1c2cc(F)ccc2c2ccc(F)cc21)C1CCC1 (centres unmarked) [Compound 160, N-Cyclobutyl-N-(3-(2,7-difluoro-9H-carbazol-9-yl)-2-hydroxypropyl)methanesulfonamide] — 0.50 log units higher, 6.22
- CC1(N(CC(O)Cn2c3ccccc3c3ccccc32)S(C)(=O)=O)CCCC1 (centres unmarked) [Compound 143, N-(3-(9H-Carbazol-9-yl)-2-hydroxypropyl)-N-(1-methylcyclopentyl)methanesulfonamide] — 1.83 log units higher, 7.55
- O=S1(=O)CCCCN1C[C@@H](O)Cn1c2ccccc2c2ccccc21 [Compound 38, (S)-N-(3-(9H-Carbazol-9-yl)-2-hydroxypropyl)-1,2-thiazinane 1,1-dioxide] — 2.24 log units higher, 7.96
- CN1CCCN(CC(O)Cn2c3ccccc3c3ccccc32)S1(=O)=O (centres unmarked) [Compound 124, 2-(3-(9H-Carbazol-9-yl)-2-hydroxypropyl)-6-methyl-1,2,6-thiadiazinane-1,1-dioxide] — 1.09 log units higher, 6.81
- CS(=O)(=O)N(CC(O)Cn1c2ccccc2c2ccccc21)C1CCCc2ccccc21 (centres unmarked) [Compound 47, N-(3-(9H-Carbazol-9-yl)-2-hydroxypropyl)-N-(1,2,3,4-tetrahydronaphthalen-1-yl)methanesulfonamide] — 0.25 log units lower, 5.47
- CS(=O)(=O)N(Cc1ccco1)CC(O)Cn1c2ccccc2c2ccc(F)cc21 (centres unmarked) [Compound 237, N-(3-(2-Fluoro-9H-carbazol-9-yl)-2-hydroxy-propyl)-N-(furan-2-yl-methyl)methane-sulfonamide] — 0.51 log units higher, 6.23
- O=S(=O)(C1CCOC1)N(Cc1ccco1)CC(O)Cn1c2ccccc2c2ccccc21 (centres unmarked) [Compound 85, N-(3-(9H-Carbazol-9-yl)-2-hydroxypropyl)-N-(furan-2-ylmethyl)tetrahydrofuran-3-sulfonamide] — 0.57 log units higher, 6.29
